Source: patent US11597724B2, “Herbicidally active 3-phenylisoxazoline-5-carboxamides of tetrahydro and dihydrofuran carboxylic acids and esters” (Bayer Aktiengesellschaft, priority 2017, dated 2023)

Assays:
Format in all cases: in vivo
[1] = tested on: Amaranthus retroflexus; assay: Pre-emergence herbicidal activity against AMARE; conditions: Amaranthus retroflexus, 504 h, dosage 80 g/ha
From the text: (§1) 1. Pre-Emergence Herbicidal Action and Crop Plant Compatibility Seeds of monocotyledonous and dicotyledonous weed plants and crop plants are placed in plastic or wood fiber pots and covered with soil. The compounds of the invention, formulated in the form of wettable powders (WP) or as emulsion concentrates (EC), are then applied onto the surface of the covering soil as aqueous suspension or emulsion with addition of 0.5% additive at a water application rate of 600 l/ha (converted). After the treatment, the pots are placed in a greenhouse and kept under good growth conditions for the trial plants. After about 3 weeks, the effect of the preparations is scored visually in comparison with untreated controls as percentages. For example, 100% activity=the plants have died, 0% activity=like control plants. AMARE: Amaranthus retroflexus AVEFA: Avena fatua

[2] = tested on: Veronica persica; assay: Pre-emergence herbicidal activity against VERPE; conditions: Veronica persica, 504 h, dosage 80 g/ha
From the text: as §1, with “STEME: Stellaria media VERPE: Veronica persica” for “AMARE: Amaranthus retroflexus AVEFA: Avena fatua”

[3] = tested on: Alopecurus myosuroides; assay: Post-emergence herbicidal activity against ALOMY; conditions: Alopecurus myosuroides, 504 h, dosage 320 g/ha, rated about 3 weeks after treatment
Experimental: (§2) ABUTH: Abutilon theophrasti ALOMY: Alopecurus myosuroides 2. Post-Emergence Herbicidal Action and Crop Plant Compatibility Seeds of monocotyledonous and dicotyledonous weeds and crop plants are placed in sandy loam in plastic or wood-fiber pots, covered with soil and cultivated in a greenhouse under controlled growth conditions. 2 to 3 weeks after sowing, the test plants are treated at the one-leaf stage. The compounds of the invention, formulated in the form of wettable powders (WP) or as emulsion concentrates (EC), are then sprayed onto the green parts of the plants as aqueous suspension or emulsion with addition of 0.5% additive at a water application rate of 600 l/ha (converted). After the test plants had been kept in the greenhouse under optimum growth conditions for about 3 weeks, the activity of the preparations is rated visually in comparison to untreated controls. For example, 100% activity=the plants have died, 0% activity=like control plants.

[4] = tested on: Avena fatua; assay: Post-emergence herbicidal activity against AVEFA; conditions: Avena fatua, 504 h, dosage 320 g/ha, rated about 3 weeks after treatment
Experimental: as §2, with “AMARE: Amaranthus retroflexus AVEFA: Avena fatua” for “ABUTH: Abutilon theophrasti ALOMY: Alopecurus myosuroides”

[5] = tested on: Lolium rigidum; assay: Post-emergence herbicidal activity against LOLRI; conditions: Lolium rigidum, 504 h, dosage 320 g/ha, rated about 3 weeks after treatment
Experimental: as §2, with “LOLRI: Lolium rigidum PHBPU: Pharbitis purpurea” for “ABUTH: Abutilon theophrasti ALOMY: Alopecurus myosuroides”

[6] = tested on: Pharbitis purpurea; assay: Post-emergence herbicidal activity against PHBPU; conditions: Ipomoea purpurea, 504 h, dosage 320 g/ha, rated about 3 weeks after treatment
Experimental: as §2, with “LOLRI: Lolium rigidum PHBPU: Pharbitis purpurea” for “ABUTH: Abutilon theophrasti ALOMY: Alopecurus myosuroides”

[7] = tested on: Polygonum convolvulus; assay: Post-emergence herbicidal activity against POLCO; conditions: Fallopia convolvulus, 504 h, dosage 320 g/ha, rated about 3 weeks after treatment
Experimental: as §2, with “POLCO: Polygonum convolvulus SETVI: Setaria viridis” for “ABUTH: Abutilon theophrasti ALOMY: Alopecurus myosuroides”

[8] = tested on: Hordeum murinum; assay: Post-emergence herbicidal activity against HORMU; conditions: Hordeum murinum, 504 h, dosage 320 g/ha
Experimental: as §2, with “ECHCG: Echinochloa crus-galli HORMU: Hordeum murinum” for “ABUTH: Abutilon theophrasti ALOMY: Alopecurus myosuroides”

[9] = Post-emergence treatment, summary over harmful plants; conditions: 504 h, application rate of 0.32 kg of active substance or less per hectare, read-out: herbicidal action, post-emergence treatment (very good herbicidal activity)
Experimental: 2. Post-Emergence Herbicidal Action and Crop Plant Compatibility
as §2, with “Seeds” for “ABUTH: Abutilon theophrasti ALOMY: Alopecurus myosuroides 2. Post-Emergence Herbicidal Action and Crop Plant Compatibility Seeds”
As shown by the results, compounds according to the invention such as, for example, the compounds No. I-35 and other compounds from the tables (for example I-28, I-38, I-01, I-19, I-36, I-29, I-32, I-11, I-12, I-37, I-06, I-09, I-33, I-34, I-13, I-04, I-26, I-21, I-30, I-05, I-03, I-20, I-27, I-14, I-10, I-23, I-07, I-25, I-02, I-08, I-24, I-41, I-42, I-43, I-44, I-46, I-49, I-54, I-55, I-56) have, when used for post-emergence treatment, very good herbicidal activity (80% to 100% herbicidal action) against harmful plants such as Abutilon theophrasti, Alopecurus myosuroides, Amaranthus retroflexus, Avena fatua, Echinochloa crus-galli, Hordeum murinum, Lolium rigidum, Pharbitis purpurea, Polygonum convolvulus, Setaria viridis, Stellaria media, Veronica persica and Viola tricolor at an application rate of 0.32 kg of active substance or less per hectare.

[10] = tested on: Abutilon theophrasti; assay: Pre-emergence herbicidal activity against ABUTH; conditions: dosage 80 g/ha
From the text: as §1, with “ABUTH: Abutilon theophrasti ALOMY: Alopecurus myosuroides” for “AMARE: Amaranthus retroflexus AVEFA: Avena fatua”

[11] = tested on: Echinochloa crus-galli; assay: Post-emergence herbicidal activity against ECHCG; conditions: Echinochloa crus-galli, 504 h, dosage 320 g/ha, rated about 3 weeks after treatment
Experimental: as §2, with “ECHCG: Echinochloa crus-galli HORMU: Hordeum murinum” for “ABUTH: Abutilon theophrasti ALOMY: Alopecurus myosuroides”

[12] = tested on: Setaria viridis; assay: Post-emergence herbicidal activity against SETVI; conditions: Setaria viridis, 504 h, dosage 320 g/ha, rated about 3 weeks after treatment
Experimental: as §2, with “POLCO: Polygonum convolvulus SETVI: Setaria viridis” for “ABUTH: Abutilon theophrasti ALOMY: Alopecurus myosuroides”

[13] = tested on: Viola tricolor; assay: Post-emergence herbicidal activity against VIOTR; conditions: Viola tricolor, 504 h, dosage 320 g/ha, rated about 3 weeks after treatment
Experimental: as §2, with “VIOTR: Viola tricolor” for “ABUTH: Abutilon theophrasti ALOMY: Alopecurus myosuroides”

[14] = tested on: Veronica persica; assay: Post-emergence herbicidal activity against VERPE; conditions: Veronica persica, 504 h, dosage 320 g/ha
Experimental: as §2, with “STEME: Stellaria media VERPE: Veronica persica” for “ABUTH: Abutilon theophrasti ALOMY: Alopecurus myosuroides”

[15] = tested on: Stellaria media; assay: Pre-emergence herbicidal activity against STEME; conditions: Stellaria media, 504 h, dosage 80 g/ha
From the text: as §1, with “STEME: Stellaria media VERPE: Veronica persica” for “AMARE: Amaranthus retroflexus AVEFA: Avena fatua”

[16] = tested on: Abutilon theophrasti; assay: Post-emergence herbicidal activity against ABUTH; conditions: Abutilon theophrasti, 504 h, dosage 320 g/ha, rated about 3 weeks after treatment
Experimental: as §2

[17] = tested on: Stellaria media; assay: Post-emergence herbicidal activity against STEME; conditions: Stellaria media, 504 h, dosage 320 g/ha, rated about 3 weeks after treatment
Experimental: as §2, with “STEME: Stellaria media VERPE: Veronica persica” for “ABUTH: Abutilon theophrasti ALOMY: Alopecurus myosuroides”

Row | SMILES | pest or weed control at 80 g/ha [1] | pest or weed control at 80 g/ha [2] | pest or weed control at 320 g/ha [3] | pest or weed control at 320 g/ha [4] | pest or weed control at 320 g/ha [5] | pest or weed control at 320 g/ha [6] | pest or weed control at 320 g/ha [7] | pest or weed control at 320 g/ha [8] | pest or weed control at 320 g/ha [9] | Pre-emergence herbicidal activity against ABUTH in % [10] | pest or weed control at 320 g/ha [11] | pest or weed control at 320 g/ha [12] | pest or weed control at 320 g/ha [13] | pest or weed control at 320 g/ha [14] | pest or weed control at 80 g/ha [15] | pest or weed control at 320 g/ha [16] | pest or weed control at 320 g/ha [17]
1 | CCOC(=O)C1=C(NC(=O)C2(C)CC(c3cc(F)cc(F)c3)=NO2)COC1 (stereo not shown) [I-24, ethyl 4-[[3-(3,5-difluorophenyl)-5-methyl-4H-isoxazole-5-carbonyl]amino]-2,5-dihydrofuran-3-carboxylate] | 80% | 100% | 90% | 90% | 90% | 80% | 90% | 90% | 80 to 100% |  |  |  |  |  |  |  | 
2 | COC(=O)[C@H]1C[C@@H](NC(=O)C2(OC)CC(c3cc(Cl)cc(Cl)c3)=NO2)CO1 (relative stereo) [I-02, methyl cis-4-[[3-(3,5-dichlorophenyl)-5-methoxy-4H-isoxazole-5-carbonyl]amino]tetrahydrofuran-2-carboxylate] |  |  | 80% |  |  | 90% | 90% |  | 80 to 100% | 100% | 90% | 80% | 80% | 80% |  |  | 
3 | COC(=O)C1=C(NC(=O)C2(C)CC(c3cc(F)cc(F)c3)=NO2)COC1 (stereo not shown) [I-25, methyl 4-[[3-(3,5-difluorophenyl)-5-methyl-4H-isoxazole-5-carbonyl]amino]-2,5-dihydrofuran-3-carboxylate] |  | 100% | 100% | 100% |  | 80% | 90% |  | 80 to 100% |  |  |  |  | 80% | 100% | 80% | 90%
